What was measured:
U-87MG cells [1] = experiment: U-87MG-induced spheroid formation in liquid culture; type: cell-based, Human; settings: treated again after 48 hours, further 72 hours
Experimental: U-87MG cells can be grown either as a monolayer or as multicellular three-dimensional spheroids (500-1,000 µm) in liquid culture. Since spheroids closely resemble the architecture of a tumor in vivo, the cultures were contacted with cRGD or RGD to determine if treatment had any effect on spheroid formation. U-87MG cells (5 ×10^5-1×10^6) were mixed with either cRGD (100µg) or RGD (100µg) peptide or PBS (as untreated control) and incubated at 4° C for 30 minutes. Treated and untreated cells were then seeded onto 24-well plate and incubated further at 37° C. Forty eight hours later; the treated cells were treated again with respective peptides and incubated for 72 hours.
In a second study, U-87MG cells were allowed to grow (in a 24-well plate) for 24 hours before the addition of cyclic (50 µg) or linear (50 µg) peptide. One set of cells, with PBS alone, served as untreated control. Forty eight hours later, the cells were treated again with respective cRGD (50 µg) or RGD (50 µg) peptides and incubated for an additional 72 hours.

U-373MG cells = experiment: Effect of cRGD and RGD peptides on growth of human glioma cells (viable cell count by trypan blue dye exclusion; morphology under microscope); type: cell-based; settings: 18 hours; for % inhibition: viable cells vs untreated control
Experimental: (§1) Human glioblastoma, U-87MG, and U-373MG cells were obtained from the American Type Culture Collection, Rockville, MD and grown in Dulbecco's modified Eagle's medium supplemented with 10% fetal calf serum (Hyclone Laboratories Inc. Logan, UT), sodium pyruvate (55 mg/L), sodium bicarbonate (1.2 g/L), HEPES (1.2 g/L) and gentamicin (50 µg/ml). U-251MG cells were provided by Dr. G.Y. Gillespie, University of Alabama at Birmingham, Alabama, and were grown in the above media.
(§2) Semi-confluent monolayers of U-87MG, U-251MG and U-373MG cells were treated with different concentrations of cRGD for 18 hours at 37° C incubator with 5% CO2. One set of cells served as untreated control. The cells were monitored under microscope for morphological changes. Most of the cRGD (10 µg/ml)-treated U-87MG (Figure 2; C=control) and U-373MG cells were rounded up. […] The number of viable cells (both treated and untreated) were then counted by trypan blue dye exclusion method using a hemacytometer (Hausser Scientific, Horsham, PA) and percent inhibition was calculated (Table 1).

U-87MG cells [2] = experiment: as above; type: cell-based; settings: 18 hours; for % inhibition: viable cells vs untreated control
Experimental: as §1, §2

U-251MG cells = experiment: as above; type: cell-based; settings: 18 hours; for % inhibition: viable cells vs untreated control
Experimental: as §1, §2

U-87MG cells [3] = experiment: Effect of caspase-3 and caspase-9 inhibitors on cell death induced by cRGDfV (viable cell count, percent survival); type: cell-based, Human; settings: U-87MG pretreated with DEVD-FMK (10 µM) or LEHD-FMK (10 µM) for 90 minutes; cRGDfV 20 µg/ml, 18 hours
Text: To determine whether the observed killing of glioma cells was due to apoptosis, we used inhibitors of caspase-3 (DEVD-FMK) and caspase-9 (LEHD-FMK), two of the cysteine aspartyl proteases, known to be involved in apoptosis (see Salvesen GS, Dixit VM (1997) Cell 91:443-446; Cohen GM (1997) Biochem J326:1-16; Janicke RU, Sprengart ML, Wati MR, Porter AG (1998) J Biol Chem 273:9357-9360; Cardone MH, Roy N, Stennicke, HR, Salvesen GS, Franke TF, Stanbridge E, Frisch S, Reed JC (1998) Science 282:1318-1321; Sakahira H, Enari M, Nagata S (1998) Nature 391:96-99). Caspase-3 is required for morphological changes and cleavage of poly(ADP-ribose) polymerase (PARP), a cellular enzyme implicated in DNA repair mechanism. Caspase-9 is involved in cytochrome c-induced apoptosis by activating procaspase-3 which finally leads to apoptosis. Briefly, U-87MG and U-251MG cells were harvested from monolayer culture and were treated with DEVD-FMK (10 µM) or LEHD-FMK (10 µM) for 90 minutes at 37°C. One set of cells without any inhibitor served as control. Cells were then washed and incubated in the presence or absence of cRGDfV (20 µg/ml) at 37°C, 5% CO2 for 18 hours. The number of viable cells, both in control and treated groups were counted and percent survival was determined.

Row | Compound | effect on spheroid formation (U-87MG cells [1]; first study: 100µg peptide mixed with cells) | % inhibition (U-373MG cells; 10 ug/ml) [%] | % inhibition (U-373MG cells; 20 ug/ml) [%] | % inhibition (U-87MG cells [2]; 10 ug/ml) [%] | % inhibition (U-87MG cells [2]; 20 ug/ml) [%] | % inhibition (U-251MG cells; 10 ug/ml) [%] | % inhibition (U-251MG cells; 20 ug/ml) [%] | reduction of the size of the spheroids (U-87MG cells [1]; first study: 100µg peptide mixed with cells, vs untreated control) | effect on spheroid formation (U-87MG cells [1]; second study: cells grown 24 hours, 50 µg peptide) | morphological changes (U-373MG cells; 10 µg/ml) | morphological changes (U-87MG cells [2]; 10 µg/ml) | morphological changes (U-251MG cells; 10 µg/ml) | number of viable cells after cRGDfV treatment (U-87MG cells [3])
1 | N=C(N)NCCC[C@H](N)C(=O)NCC(=O)N[C@@H](CC(=O)O)C(=O)O [RGD, H-Arg-Gly-Asp-OH, reference compound] | did not appear to effect spheroid formation | 6.7 | 0 | 0 | 3.5 | 0 | 13 |  |  |  |  |  | 
2 | cyclo(Arg-Gly-Asp-D-Phe-Val) [cRGD] |  | 46.7 | 80.0 | 52.9 | 70.6 | 0 | 5.9 | at least 70% | significant inhibitory effect on the spheroid formation | rounded up | rounded up | no significant morphological changes | inability of cRGDfV to reduce the number of viable U-87MG cell

Source: EP1002543A1, “Pharmaceutical compositions for the therapy of glioma or prostate cell proliferative disorders containing cyclic rgd compounds” (JCR PHARMACEUTICALS CO., LTD., priority 1998, dated 2000)
